Legend:
[1] = molecular target: T1, 5-lipoxygenase (Rattus norvegicus, UniProt P12527); test: 5-Lipoxygenase inhibiting activity (Test Example 2, [14C]-arachidonic acid, TLC); assay type: biochemical; conditions: RBL-1 cells as enzyme source; 27 μM [14C]-arachidonic acid; pH 7.4; 37° C., 5 min; TLC/scintillation; read-out: Inhibitory Activity IC50, 5-Lipoxygenase
T1 construct: rat basophilic leukemia cells (RBL-1, ATCC No. CRL 1378) were used as the 5-lipoxygenase source; endogenous in cells; host or cells: RBL-1 (rat basophilic leukemia, ATCC CRL 1378)
T1 sequence (P12527 1-673): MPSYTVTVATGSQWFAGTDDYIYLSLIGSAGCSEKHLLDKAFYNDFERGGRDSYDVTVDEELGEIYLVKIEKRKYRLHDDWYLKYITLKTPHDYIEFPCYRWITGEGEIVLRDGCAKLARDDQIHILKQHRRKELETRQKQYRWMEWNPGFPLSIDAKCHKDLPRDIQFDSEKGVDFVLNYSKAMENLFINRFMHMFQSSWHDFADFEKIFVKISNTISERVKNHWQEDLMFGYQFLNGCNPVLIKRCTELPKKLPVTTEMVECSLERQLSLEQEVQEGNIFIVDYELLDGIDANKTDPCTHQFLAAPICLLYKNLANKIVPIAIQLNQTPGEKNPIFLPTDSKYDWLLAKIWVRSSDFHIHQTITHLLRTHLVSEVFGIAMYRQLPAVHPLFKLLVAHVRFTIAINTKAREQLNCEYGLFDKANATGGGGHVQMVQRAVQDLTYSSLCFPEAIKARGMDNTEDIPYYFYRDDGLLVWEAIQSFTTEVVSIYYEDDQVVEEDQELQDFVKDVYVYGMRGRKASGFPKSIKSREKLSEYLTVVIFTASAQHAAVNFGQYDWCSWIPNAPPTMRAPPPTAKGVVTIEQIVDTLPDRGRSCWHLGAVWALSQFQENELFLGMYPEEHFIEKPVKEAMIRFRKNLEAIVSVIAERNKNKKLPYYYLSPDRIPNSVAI
Method: The compounds listed in Table 3 were tested for their lipoxygenase inhibiting activity by the following methods:
(a') 5-Lipoxygenase inhibiting activity
Essentially, the same method described in the above (a) was used. Thus, rat basophilic leukemia cells (RBL-1, ATCC No. CRL 1378) were used as the 5-lipoxygenase source. These cells were contacted with the test compound in 30 μl of 0.17 M Tris-hydrochloride buffer (pH 7.4) containing […] calcium chloride, 3.3 mM adenosine triphosphate and 1 mM glutathione at 37° C. for 5 minutes. Then, 25 μl of 27 μM [^14 C]-arachidonic acid was added and the enzymatic reaction was allowed to proceed at 37° C. for 5 minutes. To the reaction mixture was added 50 μl of ethyl acetate/methanol/0.2 M citric acid (30/4/1), and the whole mixture was stirred. The reaction product extracted into the ethyl acetate layer was separated by silica gel thin layer chromatography [Merck Art 5631: developing solvent; petroleum ether/ethyl ether/acetic acid (50/50/1)]. The site of the product [^14 C]-5-hydroxy-6,8,11,14-eicosatetraenoic acid was detected by autoradiography, the gel portion corresponding to the site was scraped off and assayed for ^14 C using a liquid scintillation counter, and the yield of the product was determined.

[2] = molecular target: T2, 12-lipoxygenase (Bos taurus, UniProt F1MFA8); test: Platelet 12-lipoxygenase inhibiting activity (Test Example 2, [14C]-arachidonic acid, TLC); assay type: biochemical; conditions: bovine platelet-derived preparation; 20 μM [14C]-arachidonic acid; pH 7.4; 30° C., 10 min; TLC/scintillation; read-out: Inhibitory Activity IC50, 12-Lipoxygenase
T2 construct: a bovine platelet-derived preparation was used as the 12-lipoxygenase source; from tissue; host or cells: bovine platelets
T2 sequence (F1MFA8 1-663): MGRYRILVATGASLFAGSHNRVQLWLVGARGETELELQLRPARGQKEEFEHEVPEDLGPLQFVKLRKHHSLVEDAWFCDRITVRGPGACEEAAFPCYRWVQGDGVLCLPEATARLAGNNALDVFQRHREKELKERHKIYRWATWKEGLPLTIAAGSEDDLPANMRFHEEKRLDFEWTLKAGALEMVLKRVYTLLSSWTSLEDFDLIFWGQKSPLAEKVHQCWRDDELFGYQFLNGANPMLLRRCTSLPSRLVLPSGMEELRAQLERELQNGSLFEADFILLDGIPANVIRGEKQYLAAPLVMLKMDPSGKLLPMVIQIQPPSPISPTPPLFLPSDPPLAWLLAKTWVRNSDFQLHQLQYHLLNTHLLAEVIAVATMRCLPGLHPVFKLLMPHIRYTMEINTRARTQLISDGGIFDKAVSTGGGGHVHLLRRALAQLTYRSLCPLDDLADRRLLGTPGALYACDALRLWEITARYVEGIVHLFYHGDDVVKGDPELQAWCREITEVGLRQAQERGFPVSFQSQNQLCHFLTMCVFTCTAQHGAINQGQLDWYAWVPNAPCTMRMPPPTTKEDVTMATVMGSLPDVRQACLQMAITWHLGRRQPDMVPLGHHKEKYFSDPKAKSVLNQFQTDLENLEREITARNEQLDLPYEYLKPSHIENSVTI

[3] = literature; cited from earlier work
[4] = tested on: lipoxygenase; conditions: known compounds; cited from earlier work
[5] = molecular target: T1, 5-lipoxygenase; test: Leukocyte 5-lipoxygenase inhibiting activity (Test Example 1, HPLC determination of 5-HETE); assay type: biochemical; conditions: RBL-1 cells as enzyme source; 60 μM arachidonic acid; pH 7.4; 37° C., 5 min; HPLC of 5-HETE; read-out: Inhibitory Activity IC50, 5-Lipoxygenase
Method: (§1) The compounds listed in Table 2 were tested in vitro for their lipoxygenase inhibiting activity in the following manner: a) Leukocyte 5-lipoxygenase inhibiting activity
The method of B.A. Jakschik et al. Biochem. Biophys. Res. Commun., 95, 103 (1980) was modified. Thus, rat basophilic leukemia cells (RBL-1, ATCC No. CRL 1378) were used as the 5-lipoxygenase source. These cells were brought into contact with the test compound in 60 μl of 0.17 M Tris-hydrochloride buffer (pH 7.4) containing […], 3.3 mM adenosine triphosphate and 1 mM glutathione at 37° C. for 5 minutes, then 50 μl of 60 μM arachidonic acid was added and the enzymatic reaction was allowed to proceed at 37° C. for 5 minutes. Thereafter, 200 μl of methanol and 13-hydroxylinolic acid (internal standard) were added. After sufficient shaking, the mixture was allowed to stand at -20° C. for 30 minutes and then centrifuged for 10 minutes (12,000 revolutions per minute) to collect the supernatant. The supernatant was evaporated to dryness under a nitrogen gas stream. To the residue was added 200 μl of 75% aqueous methanol and 100 μl of the resultant solution was subjected to high performance liquid chromatography for the determination of 5-HETE (5-hydroxyeicosatetraenoic acid). 5-HETE was assayed on the basis of the absorption at 234 nm as measured by ultraviolet absorption monitoring. The yield of 5-HETE was calculated from the peak area corrected in comparison with the peak of the internal standard. […] (b) Platelet 12-lipoxygenase inhibiting activity

[6] = molecular target: T2, 12-lipoxygenase; test: Platelet 12-lipoxygenase inhibiting activity (Test Example 1, HPLC determination of 12-HETE); assay type: biochemical; conditions: bovine platelet-derived preparation; 60 μM arachidonic acid; pH 7.4; 30° C., 10 min; HPLC of 12-HETE; read-out: Inhibitory Activity IC50, 12-Lipoxygenase
Method: as §1
The method of D.H. Nugtern et al. Biochem. Biophys. Acta, 380, 299 (1975) was modified. Thus, a bovine platelet-derived preparation was used as the 12-lipoxygenase source. This enzyme preparation and the test compound were brought into contact with each other in 60 μl of 0.17 M Tris-hydrochloride buffer (pH 7.4) at 30° C. for 5 minutes, 50 μl of 60 μM arachidonic acid was then added and the enzymatic reaction was allowed to proceed at 30° C. for 10 minutes. Thereafter, 200 μl of methanol and 13-hydroxylinolic acid (internal standard) were added and, after sufficient shaking, the mixture was allowed to stand at -20° C. for 30 minutes. The supernatant was collected by centrifugation (12,000 revolutions per minute, 10 minutes). This supernatant was evaporated to dryness under a nitrogen gas stream. To the residue was added 200 μl of 75% aqueous methanol and 100 μl of the resultant solution was subjected to high performance liquid chromatography for the determination of 12-HETE (12-hydroxyeicosapetraenoic acid). 12-HETE was assayed by ultraviolet absorption monitoring at 234 nm. The yield of 12-HETE was calculated from the peak area corrected in comparison with the peak of the internal standard.

IC50 [1]	IC50 [2]	IC50 [5]	Structure (SMILES)	also measured
680 nM	450000 nM		CC1=C(C)C(=O)C(CCCCC#CCCCC#CCO)=C(C)C1=O [AA-861, 2-(12-hydroxy-dodeca-5,10-diynyl)-3,5,6-trimethyl-1,4-benzoquinone, reference compound]	pharmacological activities (in words) [3]: bronchial contraction suppressing, anti-inflammatory, anti-myocardiac infarction and other activities; lipoxygenase inhibiting activity (in words) [4]: known to have lipoxygenase inhibiting activity
	8800 nM		Cl.NC1=NN(c2cccc(C(F)(F)F)c2)CC1 [BW-755C, 3-amino-1-(3-trifluoromethylphenyl)-2-pyrazoline hydrochloride]	pharmacological activities (in words) [3]: anti-inflammatory and other activities; lipoxygenase inhibiting activity (in words) [4]: known to have lipoxygenase inhibiting activity
		10 nM	CCCCCCCCCCCC(=O)NCCCCCN(O)C(=O)CCC(=O)OC [Compound No. 2]	IC50 [6]: 3300 nM
		560 nM	CCCCCCCCCCCC(=O)N(O)CCCCCNCCCC(=O)O [Compound No. 6]	
		52 nM	CCCCCCCCCCCC(=O)N(O)CCCCCNCCCC(=O)OC [Compound No. 7]	
		25 nM	CCCCCCCCCCCC(=O)N(O)CCCCCNC(=O)CC(=O)OCC [Compound No. 8]	IC50 [6]: 12 nM
		54 nM	CCCCCCCCCCCC(=O)N(O)CCCCCNC(=O)CC(=O)OC [Compound No. 9]	IC50 [6]: 11 nM
		270 nM	CCCCCCCCCCCC(=O)N(O)CCCNC(=O)CCC(=O)O [Compound No. 10]	IC50 [6]: 7000 nM
		12 nM	CCCCCCCCCCCC(=O)N(O)CCCNC(=O)CCC(=O)OC [Compound No. 11]	
1870 nM	35 nM		CCCCCCCCCCCC(=O)N(O)CCCCCNC(=O)CCC(=O)O [Compound No. 12]	
55 nM	14 nM		CCCCCCCCCCCC(=O)N(O)CCCCCNC(=O)CCC(=O)OC [Compound No. 13]	
800 nM	32000 nM		CCCCCCCCCCCCCCCCCC(=O)N(O)CCCCCNC(=O)CCC(=O)OC [compound 15]	
470 nM	1000 nM		CCCCCCCCCCCCCCCC(=O)N(O)CCCCCNC(=O)CCC(=O)OC [compound 17]	
360 nM	310 nM		CCC(C)CCCCCCCCCCC(=O)N(O)CCCCCNC(=O)CCC(=O)OC (stereo not shown) [compound 21]	
300 nM	56 nM		COC(=O)CCC(=O)NCCCCCN(O)C(=O)CCCCCCCCCCC(C)C [compound 23]	
190 nM	36 nM		CCCCCCCCCCCCC(=O)N(O)CCCCCNC(=O)CCC(=O)OC [compound 24]	
89 nM	33 nM		COC(=O)CCC(=O)NCCCCCN(O)C(=O)CCCCCCCCC(C)C [compound 27]	
